# Read-outs that look alike come from different tables or passages of the source.
# Columns and labels:
# MAP4K1 (HPK1) = target: T1, MAP4K1 (HPK1) (Homo sapiens, UniProt Q92918); assay: Inhibition of MAP4K1 biochemical enzymatic activity (EZReader 2 electrophoretic mobility shift); conditions: HPK1 (Invitrogen), S6K2tide 1.5 μM, 120 min; ATP 26 μM or 1000 μM (not given)
# T1 construct: purchased Invitrogen
# Method in brief: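 Untreated enzyme (0.1-15 nM) was incubated with 1.5 μM fluorescent peptide and 20-1000 μM ATP (apparent Km or 1 mM) in HEPES pH 7.5, MgCl2, DTT, Brij 35 at 25° C. for 60-180 min, with 1% DMSO and a 10-point 4-fold compound series. After an EDTA stop, product/substrate peptide peak ratio was read by mobility shift.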
# [1] = tested on: Primary T Cell (expanded CD3+ T cells); assay: T cell enhancement of cytokines: IL2 measurement (HTRF) in stimulated expanded CD3+ T cells; type: cell-based, human; conditions: plate-bound anti-CD3 and soluble anti-CD28, 24 h, IL2 by HTRF, read-out: IL-2 Primary T Cell EC50
# Protocol: T cells are isolated from whole blood of healthy donors by immunomagnetic negative selection following manufacture's protocol (StemCell Technologies, human T cell isolation kit). Purity of isolated cells is assessed by flow cytometry and yields 95-98% CD3^+ T cells. For expansion of T cells, 1×10^6 cells/well are plated in serum free cell expansion media (ThermoFisher) containing 30 U of recombinant human IL2 (R&D) and stimulated with 25 ul of CD3/CD28 beads (Invitrogen) in 24 well plates for 3-4 days. T cells are then expanded in 175 cm flasks and maintained at a cell density of 1 to 2.5×10^6 cells/ml days by addition of ⅔ of fresh media every 2-3 days. After 10-14 days, cells are frozen in BamBanker freezing media (Thermo) and stored in liquid nitrogen.
# For IL2 measurement, expanded CD3^+ T cells are dispensed at 100K cells/well (cultured in X-VIVO 10 Serum-free media) and are stimulated with plate-bound anti-CD3 and soluble anti-CD28 in the presence of vehicle or compound of the disclosure at various concentrations for 24 h. As outlined in the manufacturer's protocol (Cisbio), 16 μL of conditioned media is transferred to a white 384-well low volume plate. Following a 24 h incubation with the anti-IL2 antibodies, the homogenous time resolved fluorescence (HTRF) is measured.
# T1 sequence (Q92918 whole entry): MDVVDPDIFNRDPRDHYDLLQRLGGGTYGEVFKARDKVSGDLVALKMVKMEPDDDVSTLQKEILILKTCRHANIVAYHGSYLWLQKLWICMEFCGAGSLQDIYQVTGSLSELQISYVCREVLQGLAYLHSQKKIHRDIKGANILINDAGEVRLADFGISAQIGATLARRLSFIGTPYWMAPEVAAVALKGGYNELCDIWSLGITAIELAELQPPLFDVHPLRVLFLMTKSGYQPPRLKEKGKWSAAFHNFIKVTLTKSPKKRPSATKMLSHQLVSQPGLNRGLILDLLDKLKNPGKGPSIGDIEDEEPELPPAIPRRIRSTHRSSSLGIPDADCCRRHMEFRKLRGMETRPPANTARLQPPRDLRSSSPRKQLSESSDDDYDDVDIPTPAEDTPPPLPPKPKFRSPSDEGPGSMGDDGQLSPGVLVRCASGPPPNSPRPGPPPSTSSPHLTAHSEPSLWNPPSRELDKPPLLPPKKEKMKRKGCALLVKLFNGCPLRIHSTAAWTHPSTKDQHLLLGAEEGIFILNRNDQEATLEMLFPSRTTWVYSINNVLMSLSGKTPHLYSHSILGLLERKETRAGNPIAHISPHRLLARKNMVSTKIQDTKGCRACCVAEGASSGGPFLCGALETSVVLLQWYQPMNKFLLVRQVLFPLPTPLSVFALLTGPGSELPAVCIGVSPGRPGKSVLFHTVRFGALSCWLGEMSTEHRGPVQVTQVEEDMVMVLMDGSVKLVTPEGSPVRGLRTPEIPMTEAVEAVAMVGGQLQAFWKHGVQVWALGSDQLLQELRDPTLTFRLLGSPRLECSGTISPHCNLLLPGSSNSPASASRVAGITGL
Compound,IC50 (MAP4K1 (HPK1)) [nM],"EC50 ([1]; Homo sapiens, T-cell, 24 h) [nM]",EC50 [1] [nM]
C[C@@H]1OC(=O)c2ccc(Nc3cc4c(C(C)(C)N)cnc(OC5CN(S(C)(=O)=O)C5)c4cn3)nc2[C@H]1C [Compound 15],0.1,13,
CC[C@@](C)(N)c1cnc(O[C@H](C)C[C@@H](C)S(C)(=O)=O)c2cnc(Nc3ccc4c(n3)C(C)(C)COC4=O)cc12 [Compound 88],0.21,23,
CCS(=O)(=O)[C@H]1C[C@@H](Oc2ncc([C@](C)(N)COC)c3cc(Nc4ccc5c(n4)[C@@H](C)[C@H](C)OC5=O)ncc23)C1 [Compound 122],0.1,27,
"CC[C@@](C)(N)c1cnc(O[C@H](C)C[C@@H](C)[S@@](C)(=N)=O)c2cnc(Nc3ccc4c(n3)C(C)(C)[C@@H](C)OC4=O)cc12 (single isomer, unassigned) [Compound 183]",0.16,,43
"CC[C@@](C)(N)c1cnc(O[C@H](C)CCS(=O)(=O)CC)c2cnc(Nc3ccc4c(n3)[C@@H](C)C(C)(C)OC4=O)cc12 (single isomer, unassigned) [Compound 133]",0.2,23,
"CCS(=O)(=O)[C@H]1C[C@@H](Oc2ncc(C(C)(C)N)c3cc(Nc4ccc5c(n4)[C@@H](C)[C@H](C)OC5=O)ncc23)C1 [Compound 39, (7S,8R)-2-((5-(2-Aminopropan-2-yl)-8-((cis)-3-(ethylsulfonyl)cyclobutoxy)-2,7-naphthyridin-3-yl)amino)-7,8-dimethyl-7,8-dihydro-5H-pyrano[4,3-b]pyridin-5-one]",0.13,11,
"C[C@H](C[C@@H](C)S(C)(=O)=O)Oc1ncc(C(C)(C)N)c2cc(Nc3ccc4c(n3)C3(CC3)[C@@H](C)OC4=O)ncc12 (single isomer, unassigned) [Compound 65]",0.2,11,
"CC[C@@](C)(N)c1cnc(O[C@H](C)C[C@@H](C)S(C)(=O)=O)c2cnc(Nc3ccc4c(n3)C3(CC3)C(C)(C)OC4=O)cc12 [Compound 136, 2′-((5-((R)-2-Aminobutan-2-yl)-8-(((2R,4R)-4-(methylsulfonyl)pentan-2-yl)oxy)-2,7-naphthyridin-3-yl)amino)-7′,7′-dimethyl-5′H,7′H-spiro[cyclopropane-1,8′-pyrano[4,3-b]pyridin]-5′-one]",0.28,10,
"CC[C@@H](N)c1cnc(O[C@H]2C[C@@H](S(=O)(=O)CC)C2)c2cnc(Nc3ccc4c(n3)[C@@H](C)C(C)(C)OC4=O)cc12 (single isomer, unassigned) [Compound 74]",0.33,51,
"C[C@@H]1c2nc(Nc3cc4c(C(N)C5CC5)cnc(O[C@H]5C[C@@H](S(C)(=O)=O)C5)c4cn3)ccc2C(=O)OC1(C)C (single isomer, unassigned) [Compound 62, (R)-2-((5-((S or R)-Amino(cyclopropyl)methyl)-8-(cis-3-(methylsulfonyl)cyclobutoxy)-2,7-naphthyridin-3-yl)amino)-7,7,8-trimethyl-7,8-dihydro-5H-pyrano[4,3-b]pyridin-5-one]",0.33,76,
"CC[C@@](C)(N)c1cnc(O[C@H](C)C[C@@H](C)S(=O)(=O)CC)c2cnc(Nc3ccc4c(n3)[C@@H](C)[C@H](C)OC4=O)cc12 [Compound 127, (7S,8R)-2-((5-((R)-2-Aminobutan-2-yl)-8-(((2R,4R)-4-(ethylsulfonyl)pentan-2-yl)oxy)-2,7-naphthyridin-3-yl)amino)-7,8-dimethyl-7,8-dihydro-5H-pyrano[4,3-b]pyridin-5-one]",0.12,10,
"CC[C@@](C)(N)c1cnc(O[C@H](C)C[C@@H](C)S(C)(=O)=O)c2cnc(Nc3ccc4c(n3)C3(CC3)[C@@H](C)OC4=O)cc12 (single isomer, unassigned) [Compound 104]",0.17,10,
"C[C@@H]1OC(=O)c2ccc(Nc3cc4c(C(C)(C)N)cnc(O[C@@H](C)CCS(C)(=O)=O)c4cn3)nc2[C@H]1C (single isomer, unassigned) [Compound 18]",0.33,43,

# Reference: patent US12202844B2, “MAP4K1 inhibitors” (Blueprint Medicines Corporation, priority 2021, dated 2025)
